Data as given in the supplement of paper PMC10307832.

Key:
Experiment in all cases: relative viability (nuclei count vs DMSO), 5 days (fraction); higher = more cells survive
CUDC-101 + Bortezomib = compound: C#Cc1cccc(Nc2ncnc3cc(OC)c(OCCCCCCC(=O)NO)cc23)c1 [CUDC-101] + CC(C)C[C@H](NC(=O)[C@H](Cc1ccccc1)NC(=O)c1cnccn1)B(O)O [Bortezomib] (partner 0.002 µM)
In short: (§1)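 Dosing by pin tool came one day after lung cancer cell lines were seeded in 1536-well plates, using either one drug or a fixed anchor-drug dose plus five library-drug doses (not always all listed) in √10 steps. After 5 days, nuclei were counted on 4× images. Relative viability is treated-well nuclei count divided by vehicle-well nuclei count, and values are medians of duplicate plates.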

NVP-TAE684 + Navitoclax = compound: COc1cc(N2CCC(N3CCN(C)CC3)CC2)ccc1Nc1ncc(Cl)c(Nc2ccccc2S(=O)(=O)C(C)C)n1 [NVP-TAE684] + CC1(C)CCC(c2ccc(Cl)cc2)=C(CN2CCN(c3ccc(C(=O)NS(=O)(=O)c4ccc(N[C@H](CCN5CCOCC5)CSc5ccccc5)c(S(=O)(=O)C(F)(F)F)c4)cc3)CC2)C1 [Navitoclax] (partner 0.5 µM)
In short: as §1

NVP-TAE684 + Crizotinib = compound: COc1cc(N2CCC(N3CCN(C)CC3)CC2)ccc1Nc1ncc(Cl)c(Nc2ccccc2S(=O)(=O)C(C)C)n1 [NVP-TAE684] + C[C@@H](Oc1cc(-c2cnn(C3CCNCC3)c2)cnc1N)c1c(Cl)ccc(F)c1Cl [Crizotinib] (partner 1 µM)
In short: as §1

Vandetanib + Crizotinib = compound: COc1cc2/c(=N/c3ccc(Br)cc3F)nc[nH]c2cc1OCC1CCN(C)CC1 [Vandetanib] + C[C@@H](Oc1cc(-c2cnn(C3CCNCC3)c2)cnc1N)c1c(Cl)ccc(F)c1Cl [Crizotinib] (partner 1 µM)
In short: as §1

Cell Line | relative viability (CUDC-101 + Bortezomib; first compound 0.01 µM) | relative viability (CUDC-101 + Bortezomib; first compound 0.03162 µM) | relative viability (CUDC-101 + Bortezomib; first compound 0.1 µM) | relative viability (CUDC-101 + Bortezomib; first compound 0.3162 µM) | relative viability (CUDC-101 + Bortezomib; first compound 1 µM) | relative viability (NVP-TAE684 + Navitoclax; first compound 0.2 µM) | relative viability (NVP-TAE684 + Navitoclax; first compound 0.6325 µM) | relative viability (NVP-TAE684 + Navitoclax; first compound 2 µM) | relative viability (NVP-TAE684 + Crizotinib; first compound 0.2 µM) | relative viability (NVP-TAE684 + Crizotinib; first compound 0.6325 µM) | relative viability (NVP-TAE684 + Crizotinib; first compound 2 µM) | relative viability (Vandetanib + Crizotinib; first compound 0.02 µM) | relative viability (Vandetanib + Crizotinib; first compound 0.06325 µM) | relative viability (Vandetanib + Crizotinib; first compound 0.2 µM) | relative viability (Vandetanib + Crizotinib; first compound 0.6325 µM) | relative viability (Vandetanib + Crizotinib; first compound 2 µM)
201T | 1.08 | 1.06 | 1.09 | 1.11 | 1.08 | 1.21 | 1.19 | 1.12 | 0.972 | 1.01 | 0.889 | 1 | 1.03 | 0.978 | 0.95 | 0.969
A549 |  |  |  |  |  | 1.38 |  | 0.263 | 0.709 | 0.458 | 0.0727 | 0.777 | 0.69 | 0.862 | 0.686 | 0.683
A-427 | 0.936 | 1.01 | 0.925 | 0.985 | 0.878 | 0.992 |  | 0.874 |  |  | 0.512 | 0.895 | 0.88 | 0.966 | 0.874 | 0.879
ABC-1 | 0.243 | 0.247 | 0.269 | 0.24 | 0.18 |  |  |  | 1.06 | 0.893 | 0.296 | 1.13 | 1.05 | 1 | 1.34 | 0.728
BEN | 0.882 | 0.759 | 0.779 | 0.75 | 0.543 | 0.188 | 0.0569 | 0.0697 | 0.713 | 0.837 | 0.678 | 0.809 | 0.807 | 0.89 | 0.862 | 0.785
CAL-12T | 1.04 | 1.18 | 0.983 | 0.926 | 0.741 | 1.35 | 1.18 | 0.407 | 0.63 | 0.444 | 0.282 | 0.778 | 0.846 | 0.799 | 0.707 | 0.364
COR-L23 | 1.1 | 0.967 | 0.957 | 0.895 | 0.647 | 1.12 | 0.943 | 0.544 | 0.536 | 0.69 | 0.238 | 0.698 | 0.623 | 0.114 | 0.671 | 0.729
COR-L 105 | 0.833 | 0.963 | 0.639 | 0.611 | 0.176 | 0.717 | 0.74 | 0.593 | 0.677 | 0.461 | 0.388 | 0.851 | 0.839 | 0.729 | 0.731 | 0.248
Calu-6 | 0.955 | 1.07 | 1.05 | 1.06 | 0.815 | 0.776 | 0.694 | 0.269 | 0.73 | 0.687 | 0.285 | 0.816 | 0.723 | 0.897 | 0.833 | 0.791
ChaGo-K-1 | 1.22 | 1.31 | 0.821 | 1.03 | 0.963 | 1.54 | 0.644 | 1.03 | 1.09 | 1.11 | 0.713 | 1.1 | 1.19 | 1.14 | 1.13 | 1.16
EBC-1 | 0.658 | 0.421 | 0.409 | 0.245 | 0.153 | 0.323 | 0.247 | 0.245 | 0.208 | 0.174 | 0.155 | 0.19 | 0.177 | 0.195 | 0.194 | 0.152
EKVX | 0.956 | 1.08 | 1.04 | 0.994 | 0.729 | 0.994 | 0.907 | 0.613 | 0.775 | 0.859 | 0.582 | 1.01 | 0.882 | 1.13 | 1.02 | 0.531
EMC-BAC-2 | 1.06 | 1.05 | 1.09 | 1.18 | 0.869 | 1.12 | 1.13 | 0.695 | 0.751 | 0.806 | 0.441 | 0.764 | 0.778 | 0.432 | 0.765 | 0.708
EPLC-272H | 0.729 | 1 | 0.882 | 0.627 | 0.384 | 1.02 |  | 1.48 | 0.898 |  | 0.873 | 1.01 | 0.732 | 0.961 | 0.845 | 0.917
H3255 | 0.743 | 0.736 | 0.32 | 0.541 | 0.186 | 0.6 | 0.417 | 0.382 | 0.988 | 0.646 | 0.7 | 0.882 | 0.847 | 0.739 | 0.519 | 0.208
HARA | 1.21 | 1.09 | 1.08 | 0.918 | 0.709 | 1.02 |  | 0.701 | 1.07 | 1.02 | 0.508 | 1.04 | 1.02 | 1.01 | 0.998 | 0.956
HCC-15 | 1.03 | 1.08 | 1.02 | 1 | 0.851 | 0.72 | 0.681 | 0.375 | 0.806 | 0.792 | 0.319 | 0.837 | 0.793 | 0.855 | 0.826 | 0.821
HCC-44 | 0.798 | 1.05 | 0.829 | 0.999 | 0.88 |  | 1.02 | 0.453 | 0.782 | 0.868 | 0.489 | 0.82 | 0.802 | 0.879 | 0.863 | 0.872
HCC-78 | 0.462 | 0.383 | 0.588 | 0.342 | 0.175 | 0.433 | 0.535 | 0.282 | 0.287 | 0.296 | 0.286 | 0.318 | 0.352 | 0.328 | 0.331 | 0.257

Cell Line | relative viability (CUDC-101 + Bortezomib; first compound 0.01 µM) | relative viability (CUDC-101 + Bortezomib; first compound 0.03162 µM) | relative viability (CUDC-101 + Bortezomib; first compound 0.1 µM) | relative viability (CUDC-101 + Bortezomib; first compound 0.3162 µM) | relative viability (CUDC-101 + Bortezomib; first compound 1 µM) | relative viability (NVP-TAE684 + Navitoclax; first compound 0.2 µM) | relative viability (NVP-TAE684 + Navitoclax; first compound 0.6325 µM) | relative viability (NVP-TAE684 + Navitoclax; first compound 2 µM) | relative viability (NVP-TAE684 + Crizotinib; first compound 0.2 µM) | relative viability (NVP-TAE684 + Crizotinib; first compound 0.6325 µM) | relative viability (NVP-TAE684 + Crizotinib; first compound 2 µM) | relative viability (Vandetanib + Crizotinib; first compound 0.02 µM) | relative viability (Vandetanib + Crizotinib; first compound 0.06325 µM) | relative viability (Vandetanib + Crizotinib; first compound 0.2 µM) | relative viability (Vandetanib + Crizotinib; first compound 0.6325 µM) | relative viability (Vandetanib + Crizotinib; first compound 2 µM)
HCC-366 | 1.04 | 0.988 | 1.07 | 1.07 | 0.996 | 1.18 | 0.999 | 1.02 | 0.923 | 0.648 | 0.226 | 0.617 | 0.569 | 0.608 | 0.609 | 0.518
HCC-827 | 1.08 | 1.07 | 0.788 | 0.439 | 0.344 | 0.935 | 0.982 | 0.978 | 0.914 | 0.907 | 0.868 | 0.983 | 0.93 | 0.851 | 0.242 | 0.192
HOP-62 | 0.605 | 0.773 | 1.09 | 0.667 | 0.473 | 1.23 | 1.13 | 1.1 |  | 0.997 | 0.823 | 1.03 | 0.919 | 0.695 | 1.01 | 1.11
IA-LM | 0.772 | 0.781 | 0.795 | 0.575 | 0.196 | 0.762 | 0.641 | 0.687 | 0.626 | 0.692 | 0.62 | 0.978 | 0.802 | 0.899 | 1.3 | 1.24
LC-2-ad | 1.09 | 1.06 | 1.08 | 1.26 | 0.822 | 0.394 | 0.264 | 0.12 | 0.419 | 0.433 | 0.315 | 0.468 | 0.46 | 0.493 | 0.441 | 0.414
LCLC-97TM1 | 0.629 | 0.308 | 0.527 | 0.546 | 0.28 | 0.321 | 0.495 | 0.13 | 0.216 | 0.336 | 0.0982 | 0.32 | 0.342 | 0.232 | 0.459 | 0.441
LCLC-103H | 1.17 | 1.03 | 1.01 | 1.14 | 0.68 |  |  |  | 1.16 | 1.08 | 1 | 1.03 | 1.01 | 1.12 | 1.05 | 1
LK-2 |  |  |  |  |  | 0.777 |  | 0.449 | 0.228 | 0.223 | 0.203 | 0.217 | 0.222 | 0.225 | 0.219 | 0.233
LOU-NH91 | 0.544 | 0.488 | 0.452 | 0.405 | 0.448 | 0.644 | 0.607 | 0.463 | 0.7 | 0.725 | 0.592 | 0.766 | 0.656 | 0.637 | 0.558 | 0.533
LU99A | 1.36 | 1.14 | 1.04 | 0.998 | 0.635 | 0.802 | 0.769 | 0.362 | 0.651 | 0.576 | 0.262 | 0.546 | 0.498 | 0.63 | 0.522 | 0.577
NCI-H358 |  |  |  |  |  |  |  |  | 0.441 | 0.347 | 0.081 | 0.659 | 0.636 | 0.137 | 0.397 | 0.321
NCI-H650 | 0.834 | 0.917 | 0.87 | 0.459 | 0.643 |  |  |  | 0.799 | 0.516 | 0.399 | 0.709 | 0.703 | 0.758 | 0.605 | 0.724
NCI-H661 | 1.09 | 0.664 | 0.892 | 0.928 | 0.8 |  |  |  | 1.03 | 1.02 | 1.05 | 0.969 |  | 0.99 | 1.06 | 1.03
NCI-H1395 |  |  |  |  |  | 1.79 | 1.01 | 1.02 |  |  |  |  |  |  |  | 
NCI-H1563 | 0.842 | 0.712 | 0.948 | 0.916 | 0.792 |  |  |  | 0.771 | 0.79 | 0.651 | 0.887 | 0.835 | 0.794 | 0.852 | 0.858
NCI-H1793 |  |  |  |  |  | 0.467 | 0.491 | 0.43 |  |  |  |  |  |  |  | 
NCI-H1944 |  |  |  |  |  | 1.19 | 0.961 | 1.08 | 1.07 | 1.03 | 0.933 | 1.01 | 1.1 | 1.15 | 1.07 | 0.942
NCI-H2170 |  |  |  |  |  | 0.56 | 0.585 | 0.591 | 1.31 | 1.15 | 0.996 | 1.22 | 1.26 | 1.11 | 1.18 | 1.1
SK-MES-1 |  |  |  |  |  | 1.29 | 1.22 | 0.78 |  | 0.983 | 0.804 | 1.01 | 0.902 | 0.938 | 0.926 | 0.875
